# According to publication PMC8631675, “Neuroprotective effects of some epigenetic modifying drugs’ on Chlamydia pneumoniae-induced neuroinflammation: A novel model” (PLoS ONE, 2021):
# Where two headings read alike, the source gives them in different places.
# Legend:
# [1] = system: HMC3 microglia cells; test: Cell proliferation (cytotoxicity) analysis with xCELLigence, HMC3; format: cell-based, human
# Method: (§1) Cell proliferation analysis was performed with xCELLigence Real-Time Cell Analysis System to assess TSA, RG108, givinostat, and rifampin concentrations for use in both models. Differentiated SH-SY5Y and HMC3 microglia cells were seeded at a 5x10^3 density per well and incubated 24 h until CI values reached a log phase. The system stopped at the end of 24 h, 100, 10 and 1 μM TSA, givinostat, RG108 and rifampin were applied on current media and the cell viability was tracked. […] Simultaneously, slope plots were drawn using the CI values at 24 and 48 hours, and the statistical significance of the values discovered by assuming the average CI values of the control wells to be 100% was calculated.
# [2] = system: differentiated SH-SY5Y cells; test: Cell proliferation (cytotoxicity) analysis with xCELLigence, SH-SY5Y; format: cell-based, human
# Method: as §1
# [3] = system: differentiated SH-SY5Y cells; test: Cell viability against Aβ-induced neurotoxicity, xCELLigence; format: cell-based, human
# Method: Pathological deterioration in AD is mainly associated with overproduction of the Aβ peptide and the Aβ (1–42) variant is the toxic form that is more predominant in Alzheimer’s patients. In this study, a modified oligomeric Aβ (1–42) neurotoxicity analysis protocol was applied in order to elucidate the effects of treatment groups on SH-SY5Y cell viability in the presence of Aβ [56]. In order to model Aβ-induced neurotoxicity in vitro, an oligomeric form of the Aβ1–42 peptide was prepared by diluting with ice-cold Ham’s F12 Nutrient Mixture medium dissolved in PBS containing 0.02 M NaOH at a final concentration of 50 μM and kept in a 37°C incubator for 7 days to form peptide aggregates prior to the experiments. 5x10^3 SH-SY5Y cells were differentiated inside the xCELLigence instrument for 5 days and treated with 100 nM TSA, RG108, givinostat, rifampin; 100 ng/ml LPS+IFN-ɣ or 1 μg/ml CFS+IFN-ɣ for 24 h in order to evaluate neuroprotection. The co-culture was performed in the same way as the neuroinflammation model. Neurotoxicity was obtained instead of neuroinflammation by diluting to 5 μM with fresh medium and adding Aβ1–42 aggregates to the wells for 24 h in 100 μl of medium. Cell viability data was then monitored for 24 h and analyzed within the instrument.
# [4] = system: differentiated SH-SY5Y cells; test: Annexin V-PI staining of Aβ-induced cell death, flow cytometry; format: cell-based, human; conditions: for Necrotic effect (Q5-UL): control 1.6%; for Apoptotic effect (early apoptosis + late apoptosis): control 1.9%; for Percentage of living cells (Live): control 96.5%
# Method: To determine neuronal apoptosis associated with Aβ exposure, 25x10^3 differentiated SH-SY5Y cells were seeded in 24-well plates and Aβ was applied. After 24 h, cells were trypsinized and staining was performed according to the CF 488A Annexin V and PI Apoptosis Kit (Biotium, USA, Cat. No: 30061) protocol. After washing the cells with 1xPBS, the working solution was prepared by diluting the PI with Annexin V binding buffer included in the kit. 5 μl Annexin V and 2 μl PI working solution were added to the centrifuge tubes and binded with 100 μl Annexin V binding buffer. After the samples were incubated for 30 minutes on ice and in the dark, 400 μl of Annexin V binding buffer was added to each tube and the samples were measured and analyzed in a BD Accuri™ C6 flow cytometry device.
# [5] = system: SH-SY5Y cells; test: Total ROS/Superoxide detection; format: cell-based, human; conditions: for Increase of ROS levels compared to the control group: inducers without drug pretreatment (Aβ, pyocyanin, or both)
# Method: The Total ROS/Superoxide Detection Kit (ENZ-51010, Enzo) was used according to the kit process for evaluating the protective effects of the treatment groups on SH-SY5Y cells seeded at a 2x10^4 density per well in 96-well plates and Aβ was applied. ROS inhibitor N-acetyl cysteine (NAC) was applied at 5 mM concentration to negative control groups 30 minutes before the experiment and after incubation, 100 μL of “ROS/Superoxide Detection Solution” was added to the wells in the kit. The same procedure was done without the application of ROS inhibitor. Fluorometric analysis of stained cells was analyzed with Cytation 3 Cell Imaging Multi-Mode Reader (BioTek) using 490/525 nm and 550/620 nm filter sets.
# [6] = system: APP/PS1 mice; parameters: method as in PMID 33397436; conditions: cited from earlier work
# [7] = 24 h pretreatment (drugs 100 nM; CFS 1 μg/ml + IFN-γ; LPS 100 ng/ml + IFN-γ), then 5 μM Aβ (1–42) aggregates 24 h
# [8] = pretreatment (drugs 100 nM; LPS 100 ng/ml + IFN-γ; CFS 1 μg/ml + IFN-γ) + 5 μM Aβ 24 h
# [9] = 30 minutes NAC 5 mM, treated (drugs 100 nM; LPS 100 ng/ml; CFS 1 μg/ml, with IFN-γ) prior to Aβ exposure
# [10] = cells treated (drugs 100 nM; LPS 100 ng/ml; CFS 1 μg/ml, with IFN-γ) before exposure to Aβ, without NAC
compound,measurement,setting,value
"CCN(CC)Cc1ccc2cc(COC(=O)Nc3ccc(C(=O)NO)cc3)ccc2c1 [Givinostat, givinostat]",Reduction of HMC3 cell viability compared to the control group,"[1]; 1 μM (printed M), 24 hours",35.01%
same,Reduction of HMC3 cell viability compared to the control group,"[1]; 1 μM (printed M), 48 hours",62.78%
same,Reduction of HMC3 cell viability compared to the control group,"[1]; 10 μM, 24 hours",58.19%
same,Reduction of HMC3 cell viability compared to the control group,"[1]; 10 μM, 48 hours",92.67%
same,Reduction of HMC3 cell viability compared to the control group,"[1]; 100 μM, 24 hours",93.58%
same,Reduction of HMC3 cell viability compared to the control group,"[1]; 100 μM, 48 hours",99.29%
same,IC50,"[1]; Homo sapiens, HMC3, 24 h, from CI values at 24th hour, 1, 10 and 100 μM tested, read-out: IC50 Values 24h HMC3",11800 nM
same,IC50,"[1]; Homo sapiens, HMC3, 48 h, from CI values at 48th hour, 1, 10 and 100 μM tested, read-out: IC50 Values 48h HMC3",539 nM
same,Reduction of differentiated SH-SY5Y cell viability,"[2]; 1 μM, 24 hours",88.72%
same,Reduction of differentiated SH-SY5Y cell viability,"[2]; 1 μM, 48 hours",90.56%
same,Reduction of differentiated SH-SY5Y cell viability,"[2]; 10 μM, 24 hours",96.85%
same,Reduction of differentiated SH-SY5Y cell viability,"[2]; 10 μM, 48 hours",96.9%
same,Reduction of differentiated SH-SY5Y cell viability,"[2]; 100 μM, 24 hours",98.06%
same,Reduction of differentiated SH-SY5Y cell viability,"[2]; 100 μM, 48 hours",98.77%
same,IC50,"[2]; Homo sapiens, SH-SY5Y, 24 h, from CI values at 24th hour, 1, 10 and 100 μM tested, read-out: IC50 Values 24h SH-SY5Y",2780 nM
same,IC50,"[2]; Homo sapiens, SH-SY5Y, 48 h, from CI values at 48th hour, 1, 10 and 100 μM tested, read-out: IC50 Values 48h SH-SY5Y",1420 nM
same,CI values compared to the control group,[3]; [7],136.2%
same,Reduction of cell viability compared to the Aβ positive control group,[4]; 100 nM + 5 μM Aβ,0.5%
same,Necrotic effect (Q5-UL),[4]; [8],7.8%
same,Apoptotic effect (early apoptosis + late apoptosis),[4]; [8],7.8%
same,Percentage of living cells (Live),[4]; [8],84.3%
same,"Increase of total amount of ROS compared to the control group, with NAC",[5]; [9],22.87%
same,Decrease of total ROS amount according to the Aβ group,[5]; [10],30.49%
same,Increase of total amount of ROS compared to the control group,"[5]; cells treated (drugs 100 nM; LPS 100 ng/ml; CFS 1 μg/ml, with IFN-γ) before exposure to Aβ, without NAC, not significant",13.09%
"CC(/C=C/C(=O)NO)=C\[C@@H](C)C(=O)c1ccc(N(C)C)cc1 [TSA, Trichostatin A]",Reduction of HMC3 cell viability compared to the control group,"[1]; 1 μM (printed M), 24 hours",0.04%
same,Reduction of HMC3 cell viability compared to the control group,"[1]; 1 μM (printed M), 48 hours",1.75%
same,Reduction of HMC3 cell viability compared to the control group,"[1]; 10 μM, 24 hours",13.88%
same,Reduction of HMC3 cell viability compared to the control group,"[1]; 10 μM, 48 hours",21.94%
same,Reduction of HMC3 cell viability compared to the control group,"[1]; 100 μM, 24 hours",31.68%
same,Reduction of HMC3 cell viability compared to the control group,"[1]; 100 μM, 48 hours",51.2%
same,IC50,"[1]; from CI values at 48th hour, 1, 10 and 100 μM tested, read-out: IC50 Values 48h HMC3",156 nM
same,Reduction of differentiated SH-SY5Y cell viability,"[2]; 1 μM, 24 hours",91.34%
same,Reduction of differentiated SH-SY5Y cell viability,"[2]; 1 μM, 48 hours",97.97%
same,Reduction of differentiated SH-SY5Y cell viability,"[2]; 10 μM, 24 hours",97.43%
same,Reduction of differentiated SH-SY5Y cell viability,"[2]; 10 μM, 48 hours",98.9%
same,Reduction of differentiated SH-SY5Y cell viability,"[2]; 100 μM, 24 hours",97.86%
same,Reduction of differentiated SH-SY5Y cell viability,"[2]; 100 μM, 48 hours",99.79%
same,IC50,"[2]; from CI values at 24th hour, 1, 10 and 100 μM tested, read-out: IC50 Values 24h SH-SY5Y",596 nM
same,IC50,"[2]; from CI values at 48th hour, 1, 10 and 100 μM tested, read-out: IC50 Values 48h SH-SY5Y",312 nM
same,CI values compared to the control group,[3]; [7],137%
same,Necrotic effect (Q5-UL),[4]; [8],5.6%
same,Apoptotic effect (early apoptosis + late apoptosis),[4]; [8],5.8%
same,Percentage of living cells (Live),[4]; [8],88.6%
same,"Increase of total amount of ROS compared to the control group, with NAC",[5]; [9],0.7%
same,Decrease of total ROS amount according to the Aβ group,[5]; [10],53.43%
same,Decrease of total amount of ROS compared to the control group,"[5]; cells treated with compounds (100 nM) before exposure to Aβ, without NAC",9.85%
same,Effect on Aβ plaques and soluble Aβ oligomers in the brain,[6],reduce Aβ plaques and soluble Aβ oligomers in the brain
same,Effect on learning and memory behaviors,[6],improve learning and memory behaviors
Cn1c2cccc(=O)c-2nc2ccccc21 [pyocyanin],"Decrease of amount of ROS, with NAC","[5]; 30 minutes NAC 5 mM, pyocyanin without Aβ",0.85%
same,Increase of ROS levels compared to the control group,[5]; without NAC,36.49%
Aβ: oligomeric/aggregated Aβ1–42 peptide used at 5 μM to induce neurotoxicity,CI values compared to the control group,"[3]; 5 μM Aβ (1–42) aggregates alone, 24 h",48.5%
same,Necrotic effect (Q5-UL),[4]; 5 μM Aβ alone 24 h,6.7%
same,Apoptotic effect (early apoptosis + late apoptosis),[4]; 5 μM Aβ alone 24 h,8.5%
same,Percentage of living cells (Live),[4]; 5 μM Aβ alone 24 h,84.8%
same,"Increase of total amount of ROS compared to the control group, with NAC","[5]; 30 minutes ROS inhibitor NAC 5 mM, inducers without drug pretreatment (Aβ, or Aβ with pyocyanin)",6.62%
same,Increase of ROS levels compared to the control group,[5]; without NAC,43.58%
